Data: patent US20100022481A1, “Drug Carriers, Their Synthesis, and Methods of Use Thereof” (priority 2006, published 2010)

Assays:
rat mandible = test: Bilateral rat mandible model, bone growth and inflammation, histomorphometry; format: in vivo, Female Sprague Dawley rats; details: for new bone growth / bone anabolic effect (in words): one injection at rat mandible; for New Bone Area (mm^2 ± SEM) / New Bone Width-1 (mm ± SEM) / New Bone Width-3 (mm ± SEM): Table 1, pairs tested on contralateral sides
Description: Specifically, a bilateral rat mandible model was used with test and control samples on contralateral sides. […] The rats were euthanized at 24 days and evaluated histomorphometrically at 24 days.

[1] = Phase solubility of dexamethasone or PGE1 in the presence of ALN-CD
Description: The experiments were carried out in triplicate. Tubes containing the solutions were sealed and shaken at 25° C. for 3 days. Suspensions were then filtered using a syringe through 0.22 μm filter. The concentration of dexamethasone or PGE1 in the filtrate was determined by HPLC equipped with a UV detector. For dexamethasone, 10 μg/ml fluorometholone was used as the internal standard.
The conditions for detecting dexamethasone were as follows: chromatographic column: Agilent C18 reverse-phase (4.6×250 mm, 5 μm; Santa Clara, Calif.); mobile phase: acetonitrile-water (40:60, V/V) at a flow rate of 1 ml/min; UV detection at 240 nm.
The conditions for detecting PGE1 were as follows: chromatographic column: Agilent C18 reverse-phase (4.6×250 mm, 5 μm); mobile phase: acetonitrile-0.01M KH2PO4 (42:58, v/v) at a flow rate of 1 ml/minute; UV detection at 205 nm.

[2] = Binding potential of ALN-CD on HA; details: rhodamine B label; 10 minutes with HA at room temperature, washed with H2O 5-10 times
Description: 20 mg rhodamine B labeled ALN-CD or CD and 1 mg rhodamine B were dissolved in 0.5 ml water separately, and 100 mg of hydroxyapatite (HA) was added. The mixture was then allowed to stir gently for 10 minutes at room temperature. HA was recovered by centrifugation (10,000 rpm, 2 minutes), then washed with H2O 5-10 times to remove unbound compounds. The HA was allowed to dry under vacuum at room temperature.

[3] = 50 μl of 400 mg/mL ALN-CD or 50 μl of 81 mg/ml ALN
[4] = one injection, contralateral sides, 24 days

## CCCCC[C@H](O)/C=C/[C@H]1[C@H](O)CC(=O)[C@@H]1CCCCCCC(=O)O [PGE1, prostaglandin E1]
Rat mandible; 24 days
  new bone growth / bone anabolic effect (in words): negligible

## NCCCC(O)(P(=O)(O)O)P(=O)(O)O [alendronate]
Rat mandible; [3]
  cases with new bone on distant areas of the mandible (e.g., the medial surface): 8 of 8
  cases with new bone on the lateral surface of the mandible (location of injection): 5 of 8
Rat mandible; 24 days
  New Bone Area (mm^2 ± SEM): 0.61 ± 0.12 mm^2
  New Bone Width-1 (mm ± SEM): 0.14 ± 0.05 mm
  New Bone Width-3 (mm ± SEM): 0.24 ± 0.11 mm
  new bone growth / bone anabolic effect (in words): moderate bone anabolic effect
Rat mandible; equivalent amounts of ALN: 50 μl of 400 mg/mL ALN-CD or 50 μl of 81 mg/ml ALN
  new bone area: 0.61 ± 0.12 mm^2

## C[C@@H]1C[C@H]2[C@@H]3CCC4=CC(=O)C=C[C@]4(C)[C@@]3(F)[C@@H](O)C[C@]2(C)[C@@]1(O)C(=O)CO [dexamethasone]
[1]; ALN-CD 0 to 10 mM, 25° C., 3 days
  aqueous solubility as a function of the concentration of ALN-CD: increases
[1]; complex with ALN-CD, water, 25° C.
  apparent 1:1 stability constant Kc: 2570 M⁻¹
[1]; with ALN-CD
  solubility diagram type according to Higuchi and Connors: AL type

## CCN(CC)c1ccc2c(-c3ccccc3C(=O)O)c3ccc(=[N+](CC)CC)cc-3oc2c1.[Cl-] [rhodamine B]
[2]
  color of HA after washings (binding to the HA surface): disappeared

## hydroxypropyl(HP)-β-CD [HP-β-CD]
Rat mandible; 24 days
  New Bone Area (mm^2 ± SEM): 0.25 ± 0.08 mm^2
  New Bone Width-1 (mm ± SEM): 0.05 ± 0.02 mm
  New Bone Width-3 (mm ± SEM): 0.19 ± 0.11 mm
Rat mandible; [4]
  increase in new bone width: 0.07±0.10 mm
  percentage of osteoblasts on the lateral periosteal surface: 7.3%
